The source of these data is patent US20240246960A1 (adMare Therapeutics Society, priority 2021, published 2024).

What is called IC50 is the concentration that inhibits the measured activity by half.

In one assay the target is T1, DNA-PK (Homo sapiens, UniProt P78527).
T1 construct: purchased Invitrogen PR9107A
The experiment in a line: DNA-PK Assay for Biochemical Enzymatic Inhibition (ADP Glo Kinase assay). To be noted: Table 1. The method, boiled down: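 Human DNA-PK (25 ng) preincubated 15 min with compounds (ten three-fold dilutions) in HEPES pH 7.5, MgCl2, KCl, calf thymus DNA buffer, then substrate 434.4 μM and ATP 64.4 μM (final) for 60 min at room temperature. ADP-Glo luminescence; percent inhibition fitted by four-parameter regression for IC50.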
On the technique in general: In ADP-Glo the light output rises with the ADP produced.

Assay [1] deals with T2, DNA-PK phosphorylation at Serine 2056 (Homo sapiens, UniProt P78527).
T2 construct: host or cells: FaDu
The experiment in a line: Cellular Assay for Inhibition of DNA-PK Phosphorylation at Serine 2056 (FaDu cells, neocarzinostatin, sandwich ELISA). It is filed as cell-based. Particulars: Table 1. The method, boiled down:
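Readout was pSer2056 and total DNA-PK, measured by sandwich ELISA on protein-normalized lysates. Prior to lysis, compound was applied to FaDu cells for 1 h (0.3% DMSO), followed by 2 h of 1 μg/mL neocarzinostatin. IC50 values were fitted from log concentration versus % inhibition normalized to DMSO and NCS controls.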
A general note: ELISA stands for enzyme-linked immunosorbent assay.

SMILES strings stand for the structures.

As to `Fc1cn([C@H]2CC[C@@H](Oc3nc(N4CCOCC4)cc4ncccc34)CC2)cn1` [Compound 17a, 4-(5-(((1s,4s)-4-(4-fluoro-1H-imidazol-1-yl)cyclohexyl)oxy)-1,6-naphthyridin-7-yl)morpholine], the concentration for half-maximal inhibition (IC50) at DNA-PK is 0.5 to 1 nM; in assay [1], under 100 nM.

Turning to `Cc1nc(C(F)(F)F)cn1[C@H]1CC[C@@H](Oc2nc(N3CCOCC3)cc3ncccc23)CC1` [Compound 17i, 4-(5-(((1s,4s)-4-(2-methyl-4-(trifluoromethyl)-1H-imidazol-1-yl)cyclohexyl)oxy)-1,6-naphthyridin-7-yl)morpholine], the IC50 on DNA-PK was 0.5 to 1 nM; in assay [1], 100 to 1000 nM.

As to `FC(F)(F)c1cncn1[C@H]1CC[C@@H](Oc2nc(N3CCOCC3)cc3ncccc23)CC1` [Compound 17j, 4-(5-(((1s,4s)-4-(5-(trifluoromethyl)-1H-imidazol-1-yl)cyclohexyl)oxy)-1,6-naphthyridin-7-yl)morpholine], the IC50 on DNA-PK is under 0.5 nM; in assay [1] it was 100 to 1000 nM.

Take `Oc1cnc2cc(N3CCOCC3)nc(O[C@H]3CC[C@@H](Nc4ncccn4)CC3)c2c1` [Compound 19a, 7-Morpholino-5-(((1s,4s)-4-(pyrimidin-2-ylamino)cyclohexyl)oxy)-1,6-naphthyridin-3-ol]: the 50% inhibitory concentration (IC50) on DNA-PK was 1 to 10 nM; in assay [1] it was under 100 nM.

In the case of `CCOCCOc1cnc(N[C@H]2CC[C@@H](Oc3nc(N4CCOCC4)cc4ncc(O)cc34)CC2)nc1` [Compound 19b, 5-(((1s,4s)-4-((5-(2-Ethoxyethoxy)pyrimidin-2-yl)amino)cyclohexyl)oxy)-7-morpholino-1,6-naphthyridin-3-ol], the values for the IC50 (at DNA-PK; in assay [1]) were 1 to 10 nM and 100 to 1000 nM, respectively.

Regarding `COc1cnc(N[C@H]2CC[C@@H](Oc3nc(N4CCOCC4)cc4ncc(O)cc34)CC2)nc1` [Compound 19c, 5-(((1s,4s)-4-((5-Methoxypyrimidin-2-yl)amino)cyclohexyl)oxy)-7-morpholino-1,6-naphthyridin-3-ol], the 50% inhibitory concentration (IC50) at DNA-PK was under 0.5 nM; in assay [1], under 100 nM.

In the case of `c1cnc(N[C@H]2CC[C@@H](Oc3nc(N4CCOCC4)cc4ncccc34)CC2)nc1` [Compound 20a, N-((1s,4s)-4-((7-Morpholino-1,6-naphthyridin-5-yl)oxy)cyclohexyl)pyrimidin-2-amine], the half-inhibitory concentration (IC50) was in the range of 0.5 to 1 nM on DNA-PK and 100 to 1000 nM in assay [1].

As for `FC(F)c1ccc2c(O[C@H]3CC[C@@H](Nc4ncccn4)CC3)nc(N3CCOCC3)cc2n1` [Compound 21, N-((1s,4s)-4-((2-(Difluoromethyl)-7-morpholino-1,6-naphthyridin-5-yl)oxy)cyclohexyl)pyrimidin-2-amine], the IC50 lay within 0.5 to 1 nM on DNA-PK and 100 to 1000 nM in assay [1].

`FC(F)c1ccnc2cc(N3CCOCC3)nc(O[C@H]3CC[C@@H](Nc4ncccn4)CC3)c12` [Compound 22, N-((1s,4s)-4-((4-(Difluoromethyl)-7-morpholino-1,6-naphthyridin-5-yl)oxy)cyclohexyl)pyrimidin-2-amine]: the 50% inhibitory concentration (IC50) at DNA-PK is under 0.5 nM; in assay [1], under 100 nM.

For `c1cnc2cc(N3CCOCC3)nc(O[C@H]3CC[C@@H](Nc4cncnc4)CC3)c2c1` [Compound 28, N-((1s,4s)-4-((7-morpholino-1,6-naphthyridin-5-yl)oxy)cyclohexyl)pyrimidin-5-amine], the IC50 on DNA-PK is 0.5 to 1 nM; in assay [1] it was under 100 nM.

With `Cn1cnc(N[C@H]2CC[C@@H](Oc3nc(N4CCOCC4)cc4ncccc34)CC2)n1` [Compound 31, 1-methyl-N-((1s,4s)-4-((7-morpholino-1,6-naphthyridin-5-yl)oxy)cyclohexyl)-1H-1,2,4-triazol-3-amine], the IC50 on DNA-PK is under 0.5 nM; in assay [1] it was 100 to 1000 nM.

Regarding `Cc1cnc(N[C@H]2CC[C@@H](Oc3nc(N4CCOCC4)cc4ncccc34)CC2)nc1` [Compound 32, 5-Methyl-N-((1s,4s)-4-((7-morpholino-1,6-naphthyridin-5-yl)oxy)cyclohexyl)pyrimidin-2-amine], the IC50 on DNA-PK is under 0.5 nM; in assay [1], 100 to 1000 nM.

Regarding `FC(F)(F)c1cnc(N[C@H]2CC[C@@H](Oc3nc(N4CCOCC4)cc4ncccc34)CC2)nc1` [Compound 34, N-((1s,4s)-4-((7-Morpholino-1,6-naphthyridin-5-yl)oxy)cyclohexyl)-5-(trifluoromethyl)pyrimidin-2-amine], the results for the 50% inhibitory concentration (IC50) (on DNA-PK; in assay [1]) were 0.5 to 1 nM and 100 to 1000 nM, respectively.

For the compound `FC(F)Oc1cnc(N[C@H]2CC[C@@H](Oc3nc(N4CCOCC4)cc4ncccc34)CC2)nc1` [Compound 35, 5-(Difluoromethoxy)-N-((1s,4s)-4-((7-morpholino-1,6-naphthyridin-5-yl)oxy)cyclohexyl)pyrimidin-2-amine], the half-inhibitory concentration (IC50) on DNA-PK is 1 to 10 nM; in assay [1], under 100 nM.

Regarding `COc1ccc(N[C@H]2CC[C@@H](Oc3nc(N4CCOCC4)cc4ncccc34)CC2)nn1` [Compound 38, 6-methoxy-N-((1s,4s)-4-((7-morpholino-1,6-naphthyridin-5-yl)oxy)cyclohexyl)pyridazin-3-amine], the 50% inhibitory concentration (IC50) is 0.5 to 1 nM at DNA-PK and under 100 nM in assay [1].

Turning to `Nc1cnc(N[C@H]2CC[C@@H](Oc3nc(N4CCOCC4)cc4ncccc34)CC2)nc1` [Compound 43, N2-((1s,4s)-4-((7-morpholino-1,6-naphthyridin-5-yl)oxy)cyclohexyl)pyrimidine-2,5-diamine], the IC50 is under 0.5 nM at DNA-PK and under 100 nM in assay [1].

Take `CS(=O)(=O)Nc1cnc(N[C@H]2CC[C@@H](Oc3nc(N4CCOCC4)cc4ncccc34)CC2)nc1` [Compound 44, N-(2-(((1s,4s)-4-((7-morpholino-1,6-naphthyridin-5-yl)oxy)cyclohexyl)amino)pyrimidin-5-yl)methanesulfonamide]: the results for the IC50 (on DNA-PK; in assay [1]) were under 0.5 nM and under 100 nM, respectively.

For `Oc1cnc(N[C@H]2CC[C@@H](Oc3nc(N4CCOCC4)cc4ncccc34)CC2)nc1` [Compound 45, 2-(((1s,4s)-4-((7-morpholino-1,6-naphthyridin-5-yl)oxy)cyclohexyl)amino)pyrimidin-5-ol], the IC50 at DNA-PK is 0.5 to 1 nM; in assay [1] it was under 100 nM.

Consider `NS(=O)(=O)c1cnc(N[C@H]2CC[C@@H](Oc3nc(N4CCOCC4)cc4ncccc34)CC2)nc1` [Compound 46, 2-(((1s,4s)-4-((7-morpholino-1,6-naphthyridin-5-yl)oxy)cyclohexyl)amino)pyrimidine-5-sulfonamide], for which the 50% inhibitory concentration (IC50) on DNA-PK is 0.5 to 1 nM; in assay [1] it was 1000 to 10000 nM.

Regarding `Cc1ccnc(N[C@H]2CC[C@@H](Oc3nc(N4CCOCC4)cc4ncccc34)CC2)n1` [Compound 48, 4-methyl-N-((1s,4s)-4-((7-morpholino-1,6-naphthyridin-5-yl)oxy)cyclohexyl)pyrimidin-2-amine], the 50% inhibitory concentration (IC50) on DNA-PK was under 0.5 nM; in assay [1], under 100 nM.

On to `COc1ccnc(N[C@H]2CC[C@@H](Oc3nc(N4CCOCC4)cc4ncccc34)CC2)n1` [Compound 49, 4-methoxy-N-((1s,4s)-4-((7-morpholino-1,6-naphthyridin-5-yl)oxy)cyclohexyl)pyrimidin-2-amine], for which the 50% inhibitory concentration (IC50) on DNA-PK was in the range of 0.5 to 1 nM; in assay [1], 100 to 1000 nM.

Regarding `NC(=O)c1cnc(N[C@H]2CC[C@@H](Oc3nc(N4CCOCC4)cc4ncccc34)CC2)nc1` [Compound 52, 2-(((1s,4s)-4-((7-morpholino-1,6-naphthyridin-5-yl)oxy)cyclohexyl)amino)pyrimidine-5-carboxamide], the IC50 is under 0.5 nM at DNA-PK and under 100 nM in assay [1].
